Measured values taken from patent US20200165312A1, “COSMETIC COMPOSITION FOR IMPROVING SKIN CONDITIONS COMPRISING FUSION PROTEIN INCLUDING SKIN PENETRATION ENHANCING PEPTIDE” (LG HOUSEHOLD & HEALTH CARE LTD., priority 2017, published 2020).
Where a SMILES comes first, the peptide text is derived from it. Where no end group is shown, it is not given here. The star is where a group is joined. Palmitoyl = CCCCCCCCCCCCCCCC(=O)*

Tests used:
[1] = 2 μg in donor chamber, 16 hours, amount in receiver chamber relative to control peptide
[2] = amount present in the porcine skin by HPLC, relative to control peptide
[3] = tested on: C2C12 cells; assay: Inhibition of muscle contraction: contractions of C2C12 cells co-cultured with neuroblasts; format: cell-based; settings: 50 ppm, 2 hours, medium without FBS, counted for 30 seconds; FIG. 1
Description: Then, the number of contractions of the C2C12 cells was measured for 30 second at the initial stage of cell contraction and all of the medium was removed, followed by washing three times with PBS. The cells were reacted for 2 hours in a medium supplemented with 50 ppm of the fusion peptide without the FBS. Then, the number of contractions of the C2C12 cells was measured for 30 seconds to identify the degree of inhibiting muscle contraction.

[4] = tested on: dermal fibroblasts; assay: Hyaluronic acid (HA) production in dermal fibroblasts (ELISA); format: cell-based, human; settings: 10 ng/mL T-VEGF or VEGF, two days; control = 100
Description: Specifically, dermal fibroblasts were inoculated onto a 24-well plate and cultured for 24 hours to obtain cultures having a saturation degree of 70 to 80%. The cultures were washed with PBS and cultured in a serum-free DMEM medium including 10 ng/mL T-PDGFa or PDGFa for two days. A supernatant was obtained therefrom and the amount of hyaluronic acid (HA) produced and released in the culture solution was quantitively analyzed using an ELISA kit (R&D Systems) (Table 5).
Specifically, dermal fibroblasts were inoculated onto a 24-well plate and cultured for 24 hours to obtain cultures having a saturation degree of 70 to 80%. […] A supernatant was obtained therefrom and the amount of hyaluronic acid (HA) produced and released in the culture solution was quantitively analyzed using an ELISA kit (R&D Systems) (Table 9).

[5] = tested on: dermal papilla cells; assay: Hair follicle stem cell proliferation: dermal papilla cells, Cell Counter Kit-8; format: cell-based; settings: 1 ng/mL T-VEGF or VEGF, one day; control = 100
Description: (§1) Specifically, dermal papilla cells were inoculated onto a 96-well plate and cultured for 24 hours to obtain cultures at a density of 6,000 cells per well. The cultures were washed with PBS and cultured in a serum-free DMEM medium for one day. The cells were washed with PBS again and cultured in a serum-free DMEM medium supplemented with 1 ng/mL T-PDGFa or PDGFa for one day. The cultures were obtained therefrom and a difference between proliferated amounts of cells was quantitively analyzed using the Cell Counter Kit-8 (Dojindo). Here, dermal papilla cells cultured in a serum-free DMEM medium without T-PDGFa or PDGFa were used as a control (Table 6).
Specifically, dermal papilla cells were inoculated onto a 96-well plate and cultured for 24 hours to obtain cultures at a density of 6,000 cells per well. The cultures were washed with PBS and cultured in a serum-free DMEM medium for one day. […] The cultures were obtained therefrom and a difference between proliferated amounts of cells was quantitively analyzed using the Cell Counter Kit-8 (Dojindo).
as §1, with “T-IGF-1” for “T-PDGFa”, “IGF-1” for “PDGFa”, “15).” for “6).”
as §1, with “10” for “1”, “T-KGF” for “T-PDGFa”, “KGF” for “PDGFa”, “19).” for “6).”
as §1, with “10” for “1”, “T-Tβ4” for “T-PDGFa”, “Tβ4” for “PDGFa”, “23).” for “6).”

[6] = tested on: human umbilical vein endothelial cells; assay: Endothelial cell proliferation, Cell Counter Kit-8; format: cell-based; settings: 100 ng/mL T-VEGF or VEGF, serum-free M199, one day; control = 100
Description: Specifically, human umbilical vein endothelial cells were inoculated onto a 96-well plate and cultured for 24 hours to obtain cultures at a density of 5,000 cells per well. The cultures were washed with PBS and cultured in a serum-free M199 medium for 16 hours. […] The cultures were obtained therefrom and a difference between proliferated amounts of cells was quantitively analyzed using the Cell Counter Kit-8 (Dojindo).
Specifically, human umbilical vein endothelial cells were inoculated onto a 96-well plate and cultured for 24 hours to obtain cultures at a density of 5,000 cells per well. The cultures were washed with PBS and cultured in a serum-free M199 medium for 16 hours. The cells were washed with PBS again and cultured in a serum-free M199 medium supplemented with 100 ng/mL T-Tβ4 or Tβ4 for one day. The cultures were obtained therefrom and a difference between proliferated amounts of cells was quantitively analyzed using the Cell Counter Kit-8 (Dojindo). Here, human umbilical vein endothelial cells cultured in a serum-free M199 medium without T-Tβ4 or Tβ4 were used as a control (Table 22).

## CCCCCCCCCCCCCCCC(=O)N[C@@H](Cc1ccc(O)cc1)C(=O)N1CCC[C@H]1C(=O)N[C@@H](Cc1c[nH]c2ccccc12)C(=O)N[C@H](C(=O)N[C@@H](CCC(N)=O)C(=O)N[C@@H](CCCNC(=N)N)C(=O)N[C@@H](Cc1ccccc1)C(=O)N[C@@H](CC(N)=O)C(=O)NCC(=O)N[C@@H](CO)C(=O)N[C@@H](CC(C)C)C(=O)N[C@@H](CC(N)=O)C(=O)N[C@H](C(=O)N[C@@H](Cc1c[nH]cn1)C(=O)N[C@@H](CC(C)C)C(=O)N[C@@H](C)C(=O)N1CCC[C@H]1C(=O)N[C@H](C(=O)N[C@@H](CC(C)C)C(=O)O)[C@@H](C)CC)[C@@H](C)O)[C@@H](C)O [Fusion protein including [Pal]YPWTQRF] (Palmitoyl-YPWTQRFNGSLNTHLAPIL-OH)
[1]
  Penetration enhancement (%): 280 ± 15%
[2]
  Relative penetration (%): 6290 ± 1350%

## Acetyl-Glu-Glu-Met-Gln-Arg-Arg (Ac-EEMQRR) [Argireline ™, neurotransmitter release regulating peptide used as control peptide]
[3]
  number of contractions of the C2C12 cells: reduced

## VEGF
[4]
  Production (%) of hyaluronic acid (HA): 220 ± 20%
[5]
  Proliferation (%): 340 ± 50%
[6]
  Proliferation (%): 170 ± 10%
